Assay results from patent publication US11274332B2, “Methods of administering 3,4-diaminopyridine” (SERB SA, priority 2011, dated 2022).
Like-named read-outs stand apart in the source and are kept apart here.

Assay: Example 18 Part 2: multiple dose PK (20 mg QID) of 3,4-DAP and 3-N-acetyl metabolite in slow and fast acetylators
Type: in vivo, human
Details: for AUC(0-t) / Cmax / Tmax / Vd/F / half-life: both sexes, human, plasma, oral, 20 mg; for Cmax: read-out: Cmax; for Tmax: read-out: Tmax; for Vd/F: read-out: Vz/F; for half-life: read-out: t1/2 (converted)
Experimental: The following method was used to analyze concentrations of 3,4-diaminopyridine and N-(4-aminopyridin-3-yl)acetamide in plasma and urine samples for the experiments in Example 18. In the LC/MS/MS method, the human plasma and urine samples were extracted using acetonitrile containing 0.1% formic acid. Samples were analyzed by using HPLC with positive ion electrospray MS/MS detection. The column was an Atlantis HILIC Silica column (3 μm, 3×50 mm) at a temperature of 40° C. Mobile phase A was water containing ammonium formate (20 mM) and 0.1% formic acid. Mobile phase B was acetonitrile/isopropanol (90/10; v/v) containing 0.1% formic acid. The flow rate was 0.90 mL/minute. The gradient conditions for human plasma and urine samples were as follows:
The LC/MS/MS method was validated to quantify 3,4-DAP in human plasma in the linear calibration range of 0.500 to 500 ng/mL and from 1.00 to 1000 ng/mL for the 3-N-acetyl metabolite.
The primary objective of the study was to assess the safety and tolerability of 3,4-DAP phosphate after single and multiple doses. The secondary objectives of the study were • Part 1 only: To determine the dose-related PK profile of amifampridine and of 3-N-acetyl amifampridine after single, escalating doses of 3,4-DAP phosphate • Part 2 only: To assess the steady-state plasma PK and accumulation of amifampridine and of 3-N-acetyl amifampridine over multiple days of dosing with 3,4-DAP phosphate An exploratory objective was to examine the overall activity of the N-acetyl transferase enzymes on the metabolism of amifampridine by assessing the PK of amifampridine and 3-N-acetyl amifampridine with phenotypic acetylation activity and genotyping determination of NAT2 gene polymorphisms. Study Design and Plan
This open-label study in healthy subjects (male and female) was conducted in 2 parts. A total of 26 healthy male and female subjects, 12 in Part 1 (at least 5 of each sex), 4 in Part 2 Group 1, and 10 in Part 2 Group 2 (at least 4 of each sex) were enrolled into the study. The same subjects were not enrolled to participate in both parts. Subjects in Part 2 were dosed only after all subjects of Part 1 completed dosing and at least 24-hours of follow-up safety evaluation after the last dose were completed.
All subjects were characterized for their metabolic acetylation phenotype and NAT2 genotype in order to divide subjects into two groups of acetylators. Volunteers were genetically typed for highly variant alleles of the N-acetyl transferase 2 enzyme (NAT2) domain on chromosome 8 (according to Example 16) and were phenotyped for acetylation rates with a caffeine challenge test (according to Example 15a). Approximately equal numbers of slow and fast acetylators (as defined by a caffeine challenge test in Example 15a) were enrolled in each group. In Part 2, very slow acetylators with NAT2 activity (ratio 1, Example 15a) below 0.06 were excluded from participation in the study. In each part of the study, subjects were assessed for PK, safety, and tolerability and all doses were administered within 30 min of ingestion of a meal or a snack.
Part 2, Group 1: Four sentinel subjects were selected after determining their acetylator status. Two were fast acetylators and two were slow acetylators. All four were dosed on Day 1 with 4 oral doses of 20 mg of 34-DAP phosphate (given at 4-hour dosing intervals). On Days […] and 2, safety and tolerability data was collected. Subjects left the clinic on Day 2. The safety and tolerability data collected for these 4 sentinel subjects were reviewed. The safety and tolerability results of Days 1 and 2 for these subjects were acceptable and thus Part 2 Group 2 was commenced. Minimally acceptable safety was defined as the absence of clinical seizure activity. Subjects in Group 1 returned to the clinic for their follow-up assessments 2-4 days following their last dose.
Each subject was given a final morning dose of 20 mg 3,4-DAP phosphate on Day 4. […]

[1] = Day 1, fast acetylators, Dose 1 interval, 20 mg QID, arith. mean
[2] = Day 1, fast acetylators, Dose 2 interval, 20 mg QID, arith. mean
[3] = Day 1, fast acetylators, Dose 3 interval, 20 mg QID, arith. mean
[4] = Day 1, fast acetylators, Dose 4 interval, 20 mg QID, arith. mean
[5] = Day 1, slow acetylators, Dose 1 interval, 20 mg QID, arith. mean
[6] = Day 1, slow acetylators, Dose 2 interval, 20 mg QID, arith. mean
[7] = Day 1, slow acetylators, Dose 3 interval, 20 mg QID, arith. mean
[8] = Day 1, slow acetylators, Dose 4 interval, 20 mg QID, arith. mean
[9] = Day 3, fast acetylators, Dose 1 interval, 20 mg QID, arith. mean
[10] = Day 3, fast acetylators, Dose 2 interval, 20 mg QID, arith. mean
[11] = Day 3, fast acetylators, Dose 3 interval, 20 mg QID, arith. mean
[12] = Day 3, fast acetylators, Dose 4 interval, 20 mg QID, arith. mean
[13] = Day 3, slow acetylators, Dose 1 interval, 20 mg QID, arith. mean
[14] = Day 3, slow acetylators, Dose 2 interval, 20 mg QID, arith. mean
[15] = Day 3, slow acetylators, Dose 3 interval, 20 mg QID, arith. mean
[16] = Day 3, slow acetylators, Dose 4 interval, 20 mg QID, arith. mean
[17] = metabolite, Day 4, 20 mg single dose, fast acetylators
[18] = metabolite, Day 4, 20 mg single dose, slow acetylators

Structure (SMILES): CC(=O)Nc1cnccc1N [3-N-acetyl amifampridine, N-(4-aminopyridin-3-yl)acetamide]
- CL/F [1]: 16.2 L/h
- CL/F [2]: 7.78 L/h
- CL/F [3]: 8.90 L/h
- CL/F [4]: 7.62 L/h
- CL/F [5]: 28.8 L/h
- CL/F [6]: 20.2 L/h
- CL/F [7]: 13.5 L/h
- CL/F [8]: 10.4 L/h
- CL/F [9]: 11.5 L/h
- CL/F [10]: 7.56 L/h
- CL/F [11]: 7.72 L/h
- CL/F [12]: 7.03 L/h
- CL/F [13]: 19.0 L/h
- CL/F [14]: 14.5 L/h
- CL/F [15]: 12.7 L/h
- CL/F [16]: 9.65 L/h
- AUC(0-t) (Day 1, fast acetylators, Dose 1-4, 20 mg QID, arith. mean, read-out: AUC0-24): 5740 ng·h/mL
- AUC(0-t) (Day 1, fast acetylators, Dose 1 interval, 20 mg QID, arith. mean, read-out: AUC0-4): 773 ng·h/mL
- Cmax [1]: 333 ng/mL
- Tmax [1]: 1.43 h
- Vd/F [1]: 55.2 L
- half-life [1]: 2.35 h
- AUC(0-t) (Day 1, fast acetylators, Dose 2 interval, 20 mg QID, arith. mean, read-out: AUC0-4): 1160 ng·h/mL
- Cmax [2]: 396 ng/mL
- Tmax [2]: 1.5 h
- Vd/F [2]: 32.9 L
- half-life [2]: 2.93 h
- AUC(0-t) (Day 1, fast acetylators, Dose 3 interval, 20 mg QID, arith. mean, read-out: AUC0-4): 1280 ng·h/mL
- Cmax [3]: 426 ng/mL
- Tmax [3]: 0.964 h
- Vd/F [3]: 40.3 L
- half-life [3]: 3.28 h
- AUC(0-t) (Day 1, fast acetylators, Dose 4 interval, 20 mg QID, arith. mean, read-out: AUC0-4): 1340 ng·h/mL
- Cmax [4]: 433 ng/mL
- Tmax [4]: 1.14 h
- Vd/F [4]: 40 L
- half-life [4]: 3.93 h
- AUC(0-t) (Day 1, slow acetylators, Dose 1-4, 20 mg QID, arith. mean, read-out: AUC0-24): 3580 ng·h/mL
- AUC(0-t) (Day 1, slow acetylators, Dose 1 interval, 20 mg QID, arith. mean, read-out: AUC0-4): 383 ng·h/mL
- Cmax [5]: 150 ng/mL
- Tmax [5]: 1.68 h
- Vd/F [5]: 120 L
- half-life [5]: 2.95 h
- AUC(0-t) (Day 1, slow acetylators, Dose 2 interval, 20 mg QID, arith. mean, read-out: AUC0-4): 627 ng·h/mL
- Cmax [6]: 204 ng/mL
- Tmax [6]: 1.46 h
- Vd/F [6]: 101 L
- half-life [6]: 3.5 h
- AUC(0-t) (Day 1, slow acetylators, Dose 3 interval, 20 mg QID, arith. mean, read-out: AUC0-4): 759 ng·h/mL
- Cmax [7]: 240 ng/mL
- Tmax [7]: 1.25 h
- Vd/F [7]: 71.5 L
- half-life [7]: 4 h
- AUC(0-t) (Day 1, slow acetylators, Dose 4 interval, 20 mg QID, arith. mean, read-out: AUC0-4): 769 ng·h/mL
- Cmax [8]: 235 ng/mL
- Tmax [8]: 1.71 h
- Vd/F [8]: 70.6 L
- half-life [8]: 4.74 h
- AUC(0-t) (Day 3, fast acetylators, Dose 1-4, 20 mg QID, arith. mean, read-out: AUC0-24): 6570 ng·h/mL
- AUC(0-t) (Day 3, fast acetylators, Dose 1 interval, 20 mg QID, arith. mean, read-out: AUC0-4): 1020 ng·h/mL
- Cmax [9]: 374 ng/mL
- Tmax [9]: 1.35 h
- Vd/F [9]: 44.5 L
- half-life [9]: 2.77 h
- AUC(0-t) (Day 3, fast acetylators, Dose 2 interval, 20 mg QID, arith. mean, read-out: AUC0-4): 1320 ng·h/mL
- Cmax [10]: 448 ng/mL
- Tmax [10]: 1.3 h
- Vd/F [10]: 36.6 L
- half-life [10]: 3.6 h
- AUC(0-t) (Day 3, fast acetylators, Dose 3 interval, 20 mg QID, arith. mean, read-out: AUC0-4): 1410 ng·h/mL
- Cmax [11]: 490 ng/mL
- Tmax [11]: 0.9 h
- Vd/F [11]: 39.2 L
- half-life [11]: 3.74 h
- AUC(0-t) (Day 3, fast acetylators, Dose 4 interval, 20 mg QID, arith. mean, read-out: AUC0-4): 1460 ng·h/mL
- Cmax [12]: 509 ng/mL
- Tmax [12]: 1.1 h
- Vd/F [12]: 42 L
- half-life [12]: 4.17 h
- AUC(0-t) (Day 3, slow acetylators, Dose 1-4, 20 mg QID, arith. mean, read-out: AUC0-24): 3650 ng·h/mL
- AUC(0-t) (Day 3, slow acetylators, Dose 1 interval, 20 mg QID, arith. mean, read-out: AUC0-4): 523 ng·h/mL
- Cmax [13]: 206 ng/mL
- Tmax [13]: 1.75 h
- Vd/F [13]: 95 L
- half-life [13]: 3.47 h
- AUC(0-t) (Day 3, slow acetylators, Dose 2 interval, 20 mg QID, arith. mean, read-out: AUC0-4): 684 ng·h/mL
- Cmax [14]: 222 ng/mL
- Tmax [14]: 1.5 h
- Vd/F [14]: 81.5 L
- half-life [14]: 3.89 h
- AUC(0-t) (Day 3, slow acetylators, Dose 3 interval, 20 mg QID, arith. mean, read-out: AUC0-4): 802 ng·h/mL
- Cmax [15]: 249 ng/mL
- Tmax [15]: 1.2 h
- Vd/F [15]: 68.1 L
- half-life [15]: 3.75 h
- AUC(0-t) (Day 3, slow acetylators, Dose 4 interval, 20 mg QID, arith. mean, read-out: AUC0-4): 814 ng·h/mL
- Cmax [16]: 258 ng/mL
- Tmax [16]: 0.9 h
- Vd/F [16]: 78.3 L
- half-life [16]: 5.7 h
- AUC(0-t) (metabolite, Day 4, 20 mg single dose, fast acetylators, read-out: Mean AUC0-4): 1030 ng·h/mL
- AUC(0-t) (metabolite, Day 4, 20 mg single dose, fast acetylators, read-out: Mean AUC0-24): 2120 ng·h/mL
- AUC(0-t) (metabolite, Day 4, 20 mg single dose, slow acetylators, read-out: Mean AUC0-4): 513 ng·h/mL
- AUC(0-t) (metabolite, Day 4, 20 mg single dose, slow acetylators, read-out: Mean AUC0-24): 1230 ng·h/mL
- Mean CL/F [17]: 69.4 L/h
- Mean t1/2 [17]: 1.40 h
- Mean CL/F [18]: 116 L/h
- Mean t1/2 [18]: 1.55 h
